Measured values as given in ChEMBL document CHEMBL6071123, “Design, synthesis and biological evaluation of 5-amino-1H-pyrazole-4-carboxamide derivatives as pan-FGFR covalent inhibitors” (Eur J Med Chem, 2024).
One block for each molecule: values may come before it. Calls of active or inactive are those of the source. The calls are words filed in the database; no cut-off is given here.

How the values were obtained:
[1] = biological target: Fibroblast growth factor receptor 1 (Homo sapiens, UniProt P11362); test: biochemical; format: cell-based
Description: Inhibition of N-terminal 6-his tagged human wild type FGFR1 (458 to 765 residues) expressed in Escherichia coli BL21 cells using Tyr 04 peptide as substrate incubated for 1 hr by FRET based Z-lyte assay

SNU-16 [2] = test: Antiproliferative activity against human SNU-16 cells measured after 3 days by CCK-8 method; format: functional, cell-based; conditions: SNU-16, 72 h
[3] = Antiproliferative activity against human KATO III stomach cancer cell line measured after 3 days by CCK-8 method; format: functional, cell-based; conditions: 72 h
NCI-H520 = test: Antiproliferative activity against human NCI-H520 cells measured after 3 days by CCK-8 method; format: functional, cell-based; conditions: NCI-H520, 72 h
[4] = Metabolic stability in human liver microsomes assessed as half life at 1 uM measured upto 45 mins in presence of NADPH by HPLC-MS/MS analysis; format: ADME, Microsome
[5] = Metabolic stability in human liver microsomes assessed as hepatic clearance at 1 uM measured upto 45 mins in presence of NADPH by HPLC-MS/MS analysis; format: ADME, Microsome
[6] = Metabolic stability in human liver microsomes assessed as hepatic extraction ratio at 1 uM measured upto 45 mins in presence of NADPH by HPLC-MS/MS analysis; format: ADME, Microsome; conditions: read-out: ERH
[7] = Metabolic stability in human liver microsomes assessed as intrinsic clearance at 1 uM measured upto 45 mins in presence of NADPH by HPLC-MS/MS analysis; format: ADME, Microsome; conditions: read-out: CLH
[8] = Induction of apoptosis in human KATO III stomach cancer cell line assessed as necrotic cells at 100 nM incubated for 48 hrs by annexin V-FITC/PI staining based flow cytometry analysis (reference value: 0.072%); format: functional
[9] = Induction of apoptosis in human KATO III stomach cancer cell line assessed as late apoptotic cells at 1000 nM incubated for 48 hrs by annexin V-FITC/PI staining based flow cytometry analysis (reference value: 6.39%); format: functional
[10] = biological target: Fibroblast growth factor receptor 2 (Homo sapiens, UniProt P21802, V564F); test: Inhibition of FGFR2 V564F mutant (unknown origin) using (Poly (4:1 Glu, Tyr) peptide as substrate by ADP-Glo kinase assay
BaF3 [11] = test: Effect on AKT protein level in mouse BaF3 cells harbouring FGFR2 V564F mutant at 0 to 1000 nM measured after 6 hrs by Western blot analysis; format: functional, cell-based; conditions: dose 0-1000 nM
[12] = Induction of cell cycle arrest in human KATO III stomach cancer cell line assessed as accumulation of cells at G1 phase at 10 nM measured after 24 hrs by PI staining based flow cytometry analysis (reference value: 29.8%); format: functional
[13] = Induction of apoptosis in human KATO III stomach cancer cell line assessed as early apoptotic cells at 1000 nM incubated for 48 hrs by annexin V-FITC/PI staining based flow cytometry analysis (reference value: 3.40%); format: functional
[14] = Induction of apoptosis in human KATO III stomach cancer cell line assessed as late apoptotic cells at 100 nM incubated for 48 hrs by annexin V-FITC/PI staining based flow cytometry analysis (reference value: 6.39%); format: functional
[15] = Induction of apoptosis in human KATO III stomach cancer cell line assessed as viable cells at 100 nM incubated for 48 hrs by annexin V-FITC/PI staining based flow cytometry analysis (reference value: 90.1%); format: functional; conditions: read-out: Activity
KATO III = test: Induction of cell cycle arrest in human KATO III stomach cancer cell line assessed as accumulation of cells at G1 phase measured after 24 hrs by PI staining based flow cytometry analysis; format: functional; conditions: dose 10-1000 nM
[16] = Induction of cell cycle arrest in human KATO III stomach cancer cell line assessed as accumulation of cells at G2 phase at 1000 nM measured after 24 hrs by PI staining based flow cytometry analysis (reference value: 42.5%); format: functional
BaF3 [17] = test: Antiproliferative activity against mouse BaF3 cells harbouring FGFR2 V564F mutant assessed as reduction in cell viability incubated for 72 hrs by CCK-8 method; format: functional, cell-based; conditions: BaF3, 72 h
[18] = Induction of cell cycle arrest in human KATO III stomach cancer cell line assessed as accumulation of cells at S phase at 100 nM measured after 24 hrs by PI staining based flow cytometry analysis (reference value: 28.3%); format: functional
BaF3 [19] = test: Inhibition of AKT phosphorylation in mouse BaF3 cells harbouring FGFR2 V564F mutant measured after 6 hrs by Western blot analysis; format: cell-based; conditions: dose 0-1000 nM
[20] = Induction of apoptosis in human KATO III stomach cancer cell line assessed as viable cells at 10 nM incubated for 48 hrs by annexin V-FITC/PI staining based flow cytometry analysis (reference value: 90.1%); format: functional; conditions: read-out: Activity
[21] = Induction of apoptosis in human KATO III stomach cancer cell line assessed as necrotic cells at 10 nM incubated for 48 hrs by annexin V-FITC/PI staining based flow cytometry analysis (reference value: 0.072%); format: functional
[22] = biological target: T1, Fibroblast growth factor receptor 2 (Homo sapiens, UniProt P21802); test: Inhibition of FGFR2 phosphorylation in human SNU-16 measured after 2 hrs by Western blot analysis; format: cell-based; conditions: dose 0-300 nM
Target sequence in this assay (P21802 22-821 limits assumed): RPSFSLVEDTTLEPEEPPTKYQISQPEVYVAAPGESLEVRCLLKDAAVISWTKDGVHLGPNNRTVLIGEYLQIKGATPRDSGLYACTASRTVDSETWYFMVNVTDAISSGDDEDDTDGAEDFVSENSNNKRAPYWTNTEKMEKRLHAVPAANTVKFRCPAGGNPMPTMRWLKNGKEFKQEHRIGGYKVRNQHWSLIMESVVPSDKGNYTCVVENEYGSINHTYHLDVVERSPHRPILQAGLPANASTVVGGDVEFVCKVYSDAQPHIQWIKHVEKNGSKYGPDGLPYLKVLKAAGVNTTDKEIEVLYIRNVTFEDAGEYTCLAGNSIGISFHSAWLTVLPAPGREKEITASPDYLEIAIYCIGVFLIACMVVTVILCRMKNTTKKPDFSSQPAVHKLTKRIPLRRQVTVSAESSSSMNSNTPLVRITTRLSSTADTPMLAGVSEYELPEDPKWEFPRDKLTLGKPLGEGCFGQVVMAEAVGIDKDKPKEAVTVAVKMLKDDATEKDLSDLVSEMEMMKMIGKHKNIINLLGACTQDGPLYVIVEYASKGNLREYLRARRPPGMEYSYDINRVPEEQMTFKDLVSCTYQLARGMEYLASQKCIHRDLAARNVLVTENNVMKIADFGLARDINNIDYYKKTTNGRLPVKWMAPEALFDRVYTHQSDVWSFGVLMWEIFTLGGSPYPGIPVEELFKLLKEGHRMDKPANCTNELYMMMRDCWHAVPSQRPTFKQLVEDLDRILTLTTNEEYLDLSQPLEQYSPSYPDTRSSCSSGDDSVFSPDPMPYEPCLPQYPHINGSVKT

[23] = Induction of apoptosis in human KATO III stomach cancer cell line assessed as late apoptotic cells at 10 nM incubated for 48 hrs by annexin V-FITC/PI staining based flow cytometry analysis (reference value: 6.39%); format: functional
[24] = Induction of cell cycle arrest in human KATO III stomach cancer cell line assessed as accumulation of cells at G1 phase at 1000 nM measured after 24 hrs by PI staining based flow cytometry analysis (reference value: 29.8%); format: functional
BaF3 [25] = test: Effect on FGFR2 protein level in mouse BaF3 cells harbouring FGFR2 V564F mutant at 0 to 1000 nM measured after 6 hrs by Western blot analysis; format: functional, cell-based; conditions: dose 0-1000 nM
SNU-16 [26] = test: Inhibition of AKT phosphorylation in human SNU-16 measured after 2 hrs by Western blot analysis; format: cell-based; conditions: dose 0-300 nM
[27] = Induction of apoptosis in human KATO III stomach cancer cell line assessed as early apoptotic cells at 10 nM incubated for 48 hrs by annexin V-FITC/PI staining based flow cytometry analysis (reference value: 3.40%); format: functional
[28] = Induction of apoptosis in human KATO III stomach cancer cell line assessed as early apoptotic cells at 100 nM incubated for 48 hrs by annexin V-FITC/PI staining based flow cytometry analysis (reference value: 3.40%); format: functional
[29] = biological target: Fibroblast growth factor receptor 2 (Mus musculus) (UniProt P21803); test: Inhibition of FGFR2 phosphorylation in mouse BaF3 cells harbouring FGFR2 V564F mutant measured after 6 hrs by Western blot analysis; format: cell-based; conditions: dose 0-1000 nM
[30] = Induction of apoptosis in human KATO III stomach cancer cell line assessed as necrotic cells at 1000 nM incubated for 48 hrs by annexin V-FITC/PI staining based flow cytometry analysis (reference value: 0.072%); format: functional
[31] = Induction of cell cycle arrest in human KATO III stomach cancer cell line assessed as accumulation of cells at S phase at 10 nM measured after 24 hrs by PI staining based flow cytometry analysis (reference value: 28.3%); format: functional
[32] = biological target: T1, Fibroblast growth factor receptor 2; test: biochemical; format: cell-based
Target sequence in this assay (P21802 whole entry): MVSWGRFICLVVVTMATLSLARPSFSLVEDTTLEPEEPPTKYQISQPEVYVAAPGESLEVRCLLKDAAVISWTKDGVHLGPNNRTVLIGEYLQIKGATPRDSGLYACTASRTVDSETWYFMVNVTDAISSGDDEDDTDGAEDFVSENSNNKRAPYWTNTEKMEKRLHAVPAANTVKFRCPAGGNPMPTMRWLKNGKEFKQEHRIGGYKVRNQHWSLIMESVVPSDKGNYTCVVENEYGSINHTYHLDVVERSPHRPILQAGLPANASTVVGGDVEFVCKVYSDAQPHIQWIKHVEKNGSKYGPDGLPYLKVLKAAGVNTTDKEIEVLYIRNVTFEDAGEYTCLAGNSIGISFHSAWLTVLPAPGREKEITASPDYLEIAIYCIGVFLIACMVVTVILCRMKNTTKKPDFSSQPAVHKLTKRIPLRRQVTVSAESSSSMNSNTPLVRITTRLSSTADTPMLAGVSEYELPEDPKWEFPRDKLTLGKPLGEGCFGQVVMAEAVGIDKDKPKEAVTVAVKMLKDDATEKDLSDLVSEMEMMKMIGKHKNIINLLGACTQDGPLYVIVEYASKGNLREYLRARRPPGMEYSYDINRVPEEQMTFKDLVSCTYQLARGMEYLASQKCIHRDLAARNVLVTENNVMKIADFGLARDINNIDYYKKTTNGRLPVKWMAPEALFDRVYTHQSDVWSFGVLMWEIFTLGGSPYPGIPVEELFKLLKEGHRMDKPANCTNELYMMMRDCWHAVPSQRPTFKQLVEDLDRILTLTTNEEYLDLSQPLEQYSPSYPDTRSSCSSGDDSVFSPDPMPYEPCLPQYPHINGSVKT
Description: Inhibition of N-terminal 6-his tagged human wild type FGFR2 (458 to 768 residues) expressed in Escherichia coli BL21 cells using Tyr 04 peptide as substrate incubated for 1 hr by FRET based Z-lyte assay

[33] = biological target: Fibroblast growth factor receptor 3 (Homo sapiens, UniProt P22607); test: Inhibition of FGFR3 (unknown origin) using Tyr 04 peptide as substrate incubated for 1 hr by FRET based Z-lyte assay
[34] = Induction of cell cycle arrest in human KATO III stomach cancer cell line assessed as accumulation of cells at G1 phase at 100 nM measured after 24 hrs by PI staining based flow cytometry analysis (reference value: 29.8%); format: functional
[35] = Induction of apoptosis in human KATO III stomach cancer cell line assessed as viable cells at 1000 nM incubated for 48 hrs by annexin V-FITC/PI staining based flow cytometry analysis (reference value: 90.1%); format: functional; conditions: read-out: Activity

Chain of Fibroblast growth factor receptor 1 (P11362 whole entry): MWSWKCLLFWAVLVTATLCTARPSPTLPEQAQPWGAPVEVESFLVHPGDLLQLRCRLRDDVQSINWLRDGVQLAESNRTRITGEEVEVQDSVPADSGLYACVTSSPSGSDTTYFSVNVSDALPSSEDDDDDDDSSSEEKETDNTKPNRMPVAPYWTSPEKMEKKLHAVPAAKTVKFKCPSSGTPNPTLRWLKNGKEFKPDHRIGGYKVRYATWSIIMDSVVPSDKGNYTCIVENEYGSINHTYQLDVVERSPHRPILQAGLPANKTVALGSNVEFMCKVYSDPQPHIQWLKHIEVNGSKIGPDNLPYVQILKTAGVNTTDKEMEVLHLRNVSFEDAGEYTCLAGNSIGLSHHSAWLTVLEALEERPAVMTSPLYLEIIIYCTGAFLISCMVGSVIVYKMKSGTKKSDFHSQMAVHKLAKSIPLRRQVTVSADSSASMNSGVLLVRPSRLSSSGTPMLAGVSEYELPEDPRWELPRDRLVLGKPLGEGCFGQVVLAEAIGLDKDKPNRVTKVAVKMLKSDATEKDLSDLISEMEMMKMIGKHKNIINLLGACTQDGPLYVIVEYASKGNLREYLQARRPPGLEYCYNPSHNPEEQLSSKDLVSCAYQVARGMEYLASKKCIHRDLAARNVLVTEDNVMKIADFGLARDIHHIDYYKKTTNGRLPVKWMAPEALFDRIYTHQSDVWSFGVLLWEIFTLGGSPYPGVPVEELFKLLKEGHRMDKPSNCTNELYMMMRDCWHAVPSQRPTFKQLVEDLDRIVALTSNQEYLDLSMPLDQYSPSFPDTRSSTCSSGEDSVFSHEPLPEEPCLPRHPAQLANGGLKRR
Chain of Fibroblast growth factor receptor 3 (P22607 whole entry): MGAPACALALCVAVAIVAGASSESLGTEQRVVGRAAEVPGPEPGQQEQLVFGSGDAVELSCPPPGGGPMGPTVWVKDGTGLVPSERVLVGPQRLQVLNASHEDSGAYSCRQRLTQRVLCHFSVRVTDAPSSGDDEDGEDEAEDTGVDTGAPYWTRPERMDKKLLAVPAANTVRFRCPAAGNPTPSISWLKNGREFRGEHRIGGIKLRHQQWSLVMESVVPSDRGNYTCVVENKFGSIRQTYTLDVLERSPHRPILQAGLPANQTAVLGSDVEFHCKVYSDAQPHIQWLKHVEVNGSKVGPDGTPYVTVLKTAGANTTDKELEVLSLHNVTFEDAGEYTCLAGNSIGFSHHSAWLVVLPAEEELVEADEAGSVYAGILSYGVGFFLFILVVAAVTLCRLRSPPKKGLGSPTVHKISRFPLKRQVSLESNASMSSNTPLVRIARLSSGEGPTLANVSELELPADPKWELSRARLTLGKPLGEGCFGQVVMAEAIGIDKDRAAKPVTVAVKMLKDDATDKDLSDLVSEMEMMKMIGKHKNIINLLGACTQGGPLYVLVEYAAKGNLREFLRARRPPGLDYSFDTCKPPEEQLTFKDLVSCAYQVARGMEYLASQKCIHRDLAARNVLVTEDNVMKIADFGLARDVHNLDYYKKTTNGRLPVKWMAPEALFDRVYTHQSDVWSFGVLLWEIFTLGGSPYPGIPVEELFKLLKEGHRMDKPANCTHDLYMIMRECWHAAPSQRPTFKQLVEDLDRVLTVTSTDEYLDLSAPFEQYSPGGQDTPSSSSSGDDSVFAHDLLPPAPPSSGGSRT
Chain of Fibroblast growth factor receptor 2 (Homo sapiens, UniProt P21802, V564F) (P21802 22-821 V564F limits assumed): as the sequence (P21802 22-821 limits assumed) above, with V543F counted along it
Chain of Fibroblast growth factor receptor 2 (Mus musculus) (P21803 whole entry): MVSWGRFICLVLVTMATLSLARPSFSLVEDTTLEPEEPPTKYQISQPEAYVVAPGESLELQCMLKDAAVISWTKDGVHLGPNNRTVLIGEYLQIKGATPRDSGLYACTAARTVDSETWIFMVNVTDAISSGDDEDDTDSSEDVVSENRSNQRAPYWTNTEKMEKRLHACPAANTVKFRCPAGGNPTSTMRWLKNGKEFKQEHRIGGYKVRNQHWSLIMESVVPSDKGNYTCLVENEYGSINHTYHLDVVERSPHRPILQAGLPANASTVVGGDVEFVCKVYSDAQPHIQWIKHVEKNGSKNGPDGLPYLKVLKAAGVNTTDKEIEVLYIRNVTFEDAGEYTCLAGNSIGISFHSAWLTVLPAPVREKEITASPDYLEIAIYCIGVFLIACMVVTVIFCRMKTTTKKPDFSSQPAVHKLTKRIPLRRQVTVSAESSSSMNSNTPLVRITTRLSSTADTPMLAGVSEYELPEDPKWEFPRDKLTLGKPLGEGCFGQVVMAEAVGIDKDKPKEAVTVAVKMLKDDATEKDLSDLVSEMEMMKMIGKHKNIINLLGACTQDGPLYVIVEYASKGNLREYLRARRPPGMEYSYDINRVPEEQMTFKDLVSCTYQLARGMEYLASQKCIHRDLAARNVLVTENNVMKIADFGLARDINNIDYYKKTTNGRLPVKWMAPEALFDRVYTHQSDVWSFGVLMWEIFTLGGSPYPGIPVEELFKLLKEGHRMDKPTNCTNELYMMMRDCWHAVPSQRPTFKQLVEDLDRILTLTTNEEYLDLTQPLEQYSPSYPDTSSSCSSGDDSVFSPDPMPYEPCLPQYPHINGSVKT

IC50 [1]: 2340 nM
SMILES: C=CC(=O)Nc1ccc(CCCCn2nc(C#Cc3cc(OC)cc(OC)c3)c3c(N)ncnc32)cc1

IC50 [1]: > 10000 nM
SMILES: C=CC(=O)Nc1cccc(Cn2nc(C#Cc3c(F)cc4[nH]c(C)nc4c3F)c(C(N)=O)c2NC)c1

IC50 [1]: 680 nM
SMILES: C=CC(=O)Nc1ccc(Cn2nc(C#Cc3ccc4[nH]c(C)nc4c3)c3c(N)ncnc32)cc1

IC50 [1]: 660 nM
SMILES: C=CC(=O)Nc1ccc(Cn2nc(C#Cc3cc(OC)cc(OC)c3)c3c(N)ncnc32)cc1

IC50 [1]: 1590 nM
SMILES: C=CC(=O)Nc1ccc(CCCn2nc(C#Cc3cc(OC)cc(OC)c3)c3c(N)ncnc32)cc1

IC50 [1]: 3460 nM
SMILES: C=CC(=O)Nc1ccc(CCn2nc(C#Cc3cc(OC)cc(OC)c3)c3c(N)ncnc32)cc1

IC50 [1]: 4800 nM
SMILES: C=CC(=O)Nc1ccc(Cn2nc(-c3ccc(Oc4ccccc4)cc3)c3c(N)ncnc32)cc1

IC50 [1]: > 10000 nM
SMILES: C=CC(=O)Nc1ccc(Cn2nc(-c3ccc(Oc4nccc(C)n4)c(F)c3)c3c(N)ncnc32)cc1

IC50 [1]: 950 nM
SMILES: C=CC(=O)Nc1ccc(Cn2nc(C#Cc3ccc4sc(C)nc4c3)c(C(N)=O)c2N)cc1

IC50 [1]: > 10000 nM
SMILES: C=CC(=O)Nc1cccc(Cn2nc(C#Cc3c(F)cc4[nH]c(C)nc4c3F)c(C(N)=O)c2NCC)c1

SMILES: C=CC(=O)N1CC[C@H](n2nc(C#Cc3cc(OC)cc(OC)c3)c3c(N)ncnc32)C1 [FUTIBATINIB]
IC50 (SNU-16 [2]): 0.44 nM | IC50 [3]: 4 nM | IC50 (NCI-H520): 14 nM

IC50 [1]: 2000 nM
SMILES: C=CC(=O)Nc1ccc(Cn2nc(-c3ccc4[nH]c(C)nc4c3)c3c(N)ncnc32)cc1

IC50 [1]: > 10000 nM
SMILES: C=CC(=O)Nc1ccc(Cn2nc(C#Cc3ccc(-c4c[nH]c(C)n4)cc3)c(C(N)=O)c2N)cc1

IC50 [1]: 23 nM
SMILES: C=CC(=O)Nc1ccc(Cn2nc(-c3cc4cc(C)cc(OC)c4s3)c3c(N)ncnc32)cc1

IC50 [1]: 130 nM
SMILES: C=CC(=O)Nc1ccc(Cn2nc(C#Cc3c(F)cc4[nH]c(C)nc4c3F)c(C(N)=O)c2N)cc1

IC50 [1]: 320 nM
SMILES: C=CC(=O)Nc1ccc(Cn2nc(C#Cc3ccc4[nH]c(C)nc4c3)c(C(N)=O)c2N)cc1

IC50 [1]: 2910 nM
SMILES: C=CC(=O)Nc1cccc(Cn2nc(C#Cc3c(F)cc4[nH]c(C)nc4c3F)c(C(N)=O)c2NCCOC)c1

half-life at 1 µM [4]: 43.7 min | CLhep predicted at 1 µM [5]: 13.2 mL/min/kg | hepatic extraction ratio at 0.75 h, 1 µM [6]: 0.639 | CLint scaled at 1 µM [7]: 36.7 mL/min/kg
SMILES: O=C(c1ccc(F)cc1)C1CCN(CCn2c(=O)[nH]c3ccccc3c2=O)CC1 [KETANSERIN]

IC50 [10]: 62 nM | IC50 (SNU-16 [2]): 19 nM | IC50 (BaF3 [17]): 87 nM | half-life at 1 µM [4]: 46.4 min | CLhep predicted at 1 µM [5]: 12.9 mL/min/kg | inhibition [22]: Dose-Dependent Effect | CLint scaled at 1 µM [7]: 34.5 mL/min/kg | inhibition [29]: Dose-Dependent Effect | IC50 [32]: 41 nM | IC50 [33]: 99 nM | IC50 (NCI-H520): 73 nM
SMILES: C=CC(=O)Nc1cccc(Cn2nc(C#Cc3c(F)cc4[nH]c(C)nc4c3F)c(C(N)=O)c2N)c1
Activity [8]: 0.27% | Activity [9]: 12.7% | Activity (BaF3 [11]): Active | Activity [12]: 35.3% | Activity [13]: 10.1% | Activity [14]: 8.53% | viability at 0.1 µM [15]: 82.4% | Activity (KATO III): Dose-Dependent Effect | Activity [16]: 35.7% | Activity [18]: 3.33% | inhibition (BaF3 [19]): Dose-Dependent Effect | viability at 0.01 µM [20]: 86.7% | Activity [21]: 0.065% | Activity [23]: 7.38% | Activity [24]: 66.4% | Activity (BaF3 [25]): Active | inhibition (SNU-16 [26]): Dose-Dependent Effect | Activity [27]: 5.84% | Activity [28]: 8.85% | Activity [30]: 0.085% | Activity [31]: 25.5% | Activity [34]: 59.4% | IC50 [3]: 59 nM | viability at 1 µM [35]: 77.1%

IC50 [1]: 880 nM
SMILES: C=CC(=O)Nc1ccccc1Cn1nc(C#Cc2ccc3[nH]c(C)nc3c2)c(C(N)=O)c1N

IC50 [1]: 610 nM
SMILES: C=CC(=O)Nc1ccc(Cn2nc(C#Cc3ccc4oc(C)nc4c3)c(C(N)=O)c2N)cc1
